In patent US20090162457A1, “RESVERATROL AND/OR GRAPE LEAF EXTRACT AS I. A. ENDURANCE IMPROVER, ANTI-AGING AGENT, MUSCLE STRENGTH IMPROVER” (KAO CORPORATION, priority 2005, published 2009):

Legend:
Type in all cases: in vivo
Balb/c male mice = test: Mice maximal swimming time measurement in an adjustable-current swimming pool (endurance-improving/anti-fatigue effect); details: Test 1; for Maximal swimming time: flow rate 7 L/min
Experimental: An endurance-improving/anti-fatigue effect was evaluated in accordance with the mice maximal swimming time measurement (Reference: Am. J. Physiol. Regul. Integr. Comp. Physiol., 288, 708-715 (2005)) in an adjustable-current swimming pool. The pool used for this test made of transparent acryl (90 cm long×45 cm wide×45 cm deep) was filled with water to the depth of 38 cm and maintained at 34° C. by a heater. The current in the pool was generated by circulating water with a pump (“C-P60H”, product of Hitachi, Ltd.). The flow rate was regulated by opening and closing of a valve of a water flow meter (product of Tokyo Flow Meter Kenkyujo) connected to the pump. The flow rate was monitored by a current meter (“SV-101-25S”, product of Sanko Seimitsu Kogyo). As a test animal, five-week-old Balb/c male mice (Charles River) were used. They were habituated by preliminary rearing for 1 week under a predetermined rearing environment (23±2° C., light period: from 7:00 am to 7:00 pm). For the next one week, training was performed three times a week in order to accustom the mice to swimming (swimming for 30 minutes at a flow rate of 5 L/min on Day 1, and for 30 minutes at a flow rate of 6 L/min on Day 3 and Day 5). […] To prevent a difference between groups in the maximal swimming time, mice were classified into two groups each consisting of 8 mice, that is, a test diet group and control diet group. During this term, maximal swimming time measurement (7 L/min) and training (6 L/min, 30 minutes) were each conducted once a week.

[1] = test system: SAM-P1 male mice (senescence accelerated mice); test: Maximal running time on treadmill (anti-aging effect, endurance)
Experimental: (§1) After preliminary individual rearing of 13-week-old SAM-P1 male mice (senescence accelerated mice) and SAM-R1 male mice (ordinarily aged mice) for 5 weeks, they were habituated to treadmill running and their maximal running time was measured. The measurement was started after the mice were kept sedentary in the treadmill to accustom them to the environment. The belt speed was started at 10 m/min. The mice were caused to run for 5 minutes on the belt having a speed of 10 m/min, 5 minutes at a speed of 15 m/min, 60 minutes at a speed of […], 60 minutes at a speed of 22 m/min, 60 minutes at a speed of 24 m/min, 60 minutes at a speed of 26 m/min and then at a speed of 28 m/min. […] To avoid a difference in the maximal running time between strains, the mice were divided into three groups, that is, SAM-R1 control group, SAM-P1 control group, and SAM-P1 resveratrol group (each group consisting of 5 to 8 mice). Each mouse was exercised at 15 m/min for 30 minutes three times a week during the period of experiment. The maximal running time of each group was measured after rearing for 8 weeks. In addition, as energy metabolism at rest, oxygen consumption of each group was measured by breath analysis after rearing for 9 weeks. For this analysis, “Oxymax system” (product of Columbus Instruments) equipped with 8 chambers was used. […] From their weights, total muscle weight was determined.

[2] = test system: SAM-P1 male mice (senescence accelerated mice); test: Energy metabolism at rest: oxygen consumption by breath analysis (Oxymax system)
Experimental: as §1

[3] = test system: SAM-P1 male mice (senescence accelerated mice); test: Total muscle weight (gastrocnemius, soleus, plantaris) per body weight
Experimental: as §1

[4] = test system: SAM-P1 male mice (senescence accelerated mice); test: Maximum muscle strength of extensor digitorum longus muscle under electrical stimulation
Description: After the preliminary individual rearing of 13-week-old SAM-P1 male mice (senescence accelerated mice) and SAM-R1 male mice (ordinarily aged mice) for 5 weeks, they were habituated to treadmill running. Then, they were divided into SAM-R1 control group, SAM-P1 control group, SAM-P1 exercise group, SAM-P1 resveratrol group/exercise (each group consisting of 5 mice) They were reared for 13 weeks on a diet prepared in accordance with the formulation shown in Table 9. Exercise at 15 m/min was imposed to each mouse of the exercise group for 30 minutes three times a week during the period of experiment. After rearing for 13 weeks, the mice were sacrificed for dissection. Their extensor digitorum longus muscle was fixed to a transducer (“FORT100”, product of World Precision Instruments, Inc.) in a Krebs solution (aeration condition: 95% oxygen, 5% carbon dioxide) of 37° C. and then, electrically stimulated (at 140 Hz for 0.5 msec), whereby the maximum muscle strength was measured.

Compound: Oc1ccc(C=Cc2cc(O)cc(O)c2)cc1 [Resveratrol, 3,4′,5-trihydroxy-stilbene]
- Maximal swimming time (Balb/c male mice; after rearing for 10 weeks on diet with 0.2 mass % resveratrol, control diet 31.15 ± 2.57): 44.80 ± 4.56 min
- Maximal swimming time compared with control diet group (in words) (Balb/c male mice; after rearing for 10 weeks, 0.2 mass % resveratrol in diet): significantly extended the maximal swimming time
- Maximal swimming time (Balb/c male mice; before rearing (baseline), Balb/c male mice): 28.50 ± 1.75 min
- Maximal running time ([1]; after rearing for 8 weeks on feed with 0.2% resveratrol, SAM-P1 control 100.0 ± 5.8): 141.3 ± 19.7 min
- Maximal running time compared with SAM-P1 control group (in words) ([1]; after rearing for 8 weeks, 0.2% resveratrol in feed): significantly long compared with that of the SAM-P1 control group
- Oxygen consumption (average for 24 hours) ([2]; after rearing for 9 weeks on feed with 0.2% resveratrol, SAM-P1 control 46.9 ± 1.3): 57.1 ± 4.3 mL/min/kg
- Oxygen consumption compared with SAM-P1 control group (in words) ([2]; after rearing for 9 weeks, 0.2% resveratrol in feed): significantly high compared with that of the SAM-P1 control group
- Relative muscle weight (muscle weight per body weight) ([3]; after rearing for 10 weeks on feed with 0.2% resveratrol, SAM-P1 control 0.64 ± 0.02): 0.81 ± 0.07%
- Muscle weight compared with SAM-P1 control group (in words) ([3]; after rearing for 10 weeks, 0.2% resveratrol in feed): significantly large compared with that of the SAM-P1 control group
- Maximum muscle strength of extensor digitorum longus muscle ([4]; resveratrol (0.2% in feed) plus exercise, reared for 10 weeks per table title (13 weeks per text), SAM-P1 control 9.8 ± 0.3, SAM-P1 exercise 13.0 ± 1.8): 15.0 ± 1.8 g
- Maximum muscle strength compared with SAM-P1 control group (in words) ([4]; resveratrol-containing feed (0.2%) plus exercise): significantly high
